The values below come from paper PMC9101373, “Design of DNA Intercalators Based on 4-Carboranyl-1,8-Naphthalimides: Investigation of Their DNA-Binding Ability and Anticancer Activity” (International Journal of Molecular Sciences, 2022).

The subject of experiment [1] is calf thymus DNA (ct-DNA). The experiment is described as follows: Melting temperature (Tm) measurements of ct-DNA, thermal denaturation. The class given is binding. The settings on record: for ΔTm ct-DNA: r = [compound]/[ct-DNA] = 0.3, pH 7.0, 20 mM cacodylate buffer, Tm of ct-DNA alone 74 °C. The procedure:
The melting temperature (Tm) of DNA is defined as the temperature at which 50% of the DNA is in form of single strands forming randomly coiled structures. DNA melting is measured by the absorbance of UV light (260 nm) by the DNA solution, where the amount of UV light absorbed is proportional to the fraction of non-bonded base pairs. The majority of DNA-binding small molecules known thus far stabilize duplex DNA against heat denaturation. A high, drug-induced increase in the Tm of DNA is generally viewed as an excellent criterion to select DNA ligands and is a common feature of several anticancer drugs such as intercalators (a significant increase in Tm = 3–8 °C is observed for strong intercalation) and alkylators. The reverse situation (destabilization of DNA to facilitate its denaturation) may be an attractive option to identify therapeutic agents acting on the DNA structure.
Our study conducted Tm measurement to estimate the impact of 1,8-naphthalimides bearing the carborane cluster on DNA stabilization (Table 1, Figures S249–S253, ESI).
The measurements were performed by adding aliquots of DMSO stock solution of the tested compounds to the buffer solution (pH 7.0, 20 mM, cacodylate buffer, DMSO content of the final solution = 0.24–0.36%). The Tm curves were collected at r = 0.3 (r = [compound]/[ct-DNA]) to assure the dominant binding mode. Thermal melting curves were determined by following the absorption change at 260 nm as a function of temperature by using a GBC Cintra10 UV–vis spectrometer (Dandenong, Australia) equipped with a GBC Thermocell Peltier Power Supply (Dandenong, Australia) using a 1 cm path length cell. The absorbance of the samples was monitored at 260 nm from 30 to 90 °C (95 °C for compounds 54–61) with a heating rate of 1 °C/min. Tm values are the midpoints or the transition curves determined from the maximum of the first derivative. The ΔTm values were calculated by subtracting the Tm of the free nucleic acid from the Tm of the sample. Every Tm value reported in this study was average at least three measurements. The error in Tm was 0.5 °C.

The subject of experiment [2] is calf thymus DNA (ct-DNA). Description: UV–vis absorption titration with ct-DNA, binding constant Kb. The following applies: 10 µM compound, ct-DNA 1.25–15 µM. An excerpt: The interaction of 1,8-naphthalimides bearing carborane clusters with ct-DNA was also studied by UV–vis absorption titration to better understand the mode of interaction and binding strength. For compounds interacting with DNA by intercalation, bathochromic and hypochromic effects are observed in the absorption spectra. The spectral changes observed in the electronic absorption of 6–11, 16–19, 36–43, and 54–61 in the absence and presence of ct-DNA are illustrated in Figures S271–S296 (ESI). Progressive addition of ct-DNA at the concentration of 1.25–15 µM to a fixed amount of modified naphthalic anhydride or naphthalimide (10 µM concentration) decreased absorbance for almost all the tested modified conjugates, except conjugates 14, 15, and 22–27 for which changes in absorbance were not observed. […] Hypochromicity (10–56%) was also observed for all conjugates, with the highest value for compound 40.
To compare the DNA-binding strength of the tested conjugates, we calculated the binding constant Kb, as described in the Materials and Methods section. […] For conjugates 14, 15, and 22–27, the Kb value could not be determined due to the lack of noticeable changes in the UV spectra.
The measurements were performed by adding aliquots of DMSO stock solution of the tested compounds to the buffer solution (pH 7.4, 20 mM, 50 mM NaCl, Tris-HCl buffer, DMSO content of the final solutions = 0.40–0.61%) to the final concentration of 10 µM. The tested compounds were incubated 5 min, with increasing concentrations ranging from 0 to 15 µM of ct-DNA at 37 °C, then the UV–vis absorption spectra, between 310 and 500 nm (310–550 nm for compounds 36–43 and 54–61), were recorded using a GBC Cintra10 UV–vis spectrometer (Dandenong, Australia) equipped with a GBC Thermocell Peltier Power Supply (Dandenong, Australia) using a 1 cm path length cell. The binding constant was calculated according to the following equation [53]: A0/A−A0=εG/εH−G−εG +εG/εH−G−εG ×1/Kb[DNA] where Kb is the binding constant, A0 and A are the absorbance of the free tested compound, and the apparent one, εG and εH−G are their coefficient, respectively, and [DNA] is the concentration of [DNA] in the base pair. The slope to intercept ratio of the plot between A0/A − A0 versus 1/[DNA] yielded the binding constant.

The test system of experiment [3] is HepG2 cells. The experiment is described as follows: In vitro cytotoxic activity, MTT assay. The settings on record: 24 h treatment, read-out: IC50, compound concentration required to inhibit cell growth by 50%. The class given is cell-based, human. The procedure:
The obtained 1,8-naphthalimide–carborane conjugates were investigated for their in vitro antitumor activity by examining their cytotoxic effects using the MTT tetrazolium dye assay against the human cancer cell line HepG2 established from hepatocellular carcinoma. IC50 refers to the drug concentration (µM) required to inhibit cell growth by 50%.
The cytotoxic properties of the synthesized compounds were evaluated using the human hepatocellular carcinoma cell line HepG2 established from hepatocellular carcinoma. The HepG2 cell line was purchased from ECACC (Salisbury, UK). Cells were grown in EMEM medium (Corning®) supplemented with 10% heat-inactivated fetal bovine serum (FBS) (Corning®) and antibiotics (Corning®), at 37 °C in a 5% CO2 atmosphere. Upon reaching 80–90% confluency, cells were detached with the trypsin (Corning®) and transferred into 96-well microplates at a density of 12 × 10^3. After overnight incubation at 37 °C in a humidified atmosphere containing 5% CO2, the cells were treated for the next 24 h with compounds. The stock solution of each compound was prepared in DMSO at 10 mM. The cytotoxicity was evaluated by the MTT assay. […] Subsequently, the medium was aspirated and replaced with 3-(4,5-dimethylthiazol-2-yl)-2,5-diphenyltetrazolium bromide (MTT) dye solution (50 µL, 0.5 mg/mL). After 3 h incubation, the resulting MTT formazan crystals were dissolved in DMSO (100 µL). To ensure the complete dissolution of formazan, the plates were shaken on an orbital microplate shaker at 1000 rpm for 15 min (Thermoshaker NeoLab 7–0055, Bionovo, Legnica, Poland). The optical density of each well was then measured on a VICTOR Nivo multimode plate reader at a wavelength of 570 nm. Each experiment consisted of 6 replications of each concentration, and each experiment was repeated three times independently. The results were calculated as a percentage of control group viability. The IC50 values were determined using a non-linear regression from the plot of % viability against log dose of compounds by using GraphPad Prism 6.0 software (GraphPad, San Diego, CA, USA).

Another experiment has as its target T1, human topoisomerase IIα (Homo sapiens, UniProt P11388).
T1 construct: purchased Inspiralis (Norwich, UK)
The experiment is described as follows: Human topoisomerase IIα relaxation assay. The settings on record: for IC50: supercoiled pBR322, concentration range 0.1–100 µM, read-out: IC50, compound concentration required to inhibit the activity of this enzyme by 50%. The class given is biochemical. Here is the method: Therefore, we subjected these compounds to further detailed analyses of inhibitory potential within the concentration range of 0.1–100 µM (Figure S301, ESI) to calculate IC50 values. IC50 refers to the compound concentration (µM) required to inhibit the activity of the topoisomerase enzyme by 50%.
The Human Topoisomerase II-alpha Relaxation Assay Kit was purchased from Inspiralis (Norwich, UK). The Topo IIα inhibition assay was performed as described by the manufacturer. […] Next, TopoIIα (1 U) was added, and the reaction mixture was incubated at 37 °C for an additional 45 min. The reaction was terminated by addition of the STEB buffer (40 % (w/v) sucrose, Tris-HCl (100 mM, pH 8), EDTA (1 mM), bromophenol blue (0.5 mg/mL)). The products were analyzed by electrophoresis using agarose gel (1%) in TAE buffer at 70 V for 2 h, followed by ethidium bromide staining. […] The percentage of Topo-II alpha activity inhibition was calculated by densitometric quantification (Quantity One software, Bio-Rad). The occurrence of a band representing supercoiled DNA on an agarose gel indicated the inhibition of enzyme activity.

Experiment [4] deals with calf thymus DNA (ct-DNA). Further details: method as in PMID 33803403. The settings on record: unmodified mitonafide and pinafide; cited from earlier work.
In experiment [5] the test system is HepG2 cells. Further details: method as in PMID 31776032. The following applies: read-out: IC50, compound concentration required to inhibit cell growth by 50%; cited from earlier work.
The test system of experiment [6] is HepG2 cells. Also noted: method as in PMID 31776032. The settings on record: cited from earlier work.

Like-named read-outs stand apart in the source and are kept apart here. A value given as a limit tells only on which side of the number the result lay.

T1 sequence (P11388 whole entry): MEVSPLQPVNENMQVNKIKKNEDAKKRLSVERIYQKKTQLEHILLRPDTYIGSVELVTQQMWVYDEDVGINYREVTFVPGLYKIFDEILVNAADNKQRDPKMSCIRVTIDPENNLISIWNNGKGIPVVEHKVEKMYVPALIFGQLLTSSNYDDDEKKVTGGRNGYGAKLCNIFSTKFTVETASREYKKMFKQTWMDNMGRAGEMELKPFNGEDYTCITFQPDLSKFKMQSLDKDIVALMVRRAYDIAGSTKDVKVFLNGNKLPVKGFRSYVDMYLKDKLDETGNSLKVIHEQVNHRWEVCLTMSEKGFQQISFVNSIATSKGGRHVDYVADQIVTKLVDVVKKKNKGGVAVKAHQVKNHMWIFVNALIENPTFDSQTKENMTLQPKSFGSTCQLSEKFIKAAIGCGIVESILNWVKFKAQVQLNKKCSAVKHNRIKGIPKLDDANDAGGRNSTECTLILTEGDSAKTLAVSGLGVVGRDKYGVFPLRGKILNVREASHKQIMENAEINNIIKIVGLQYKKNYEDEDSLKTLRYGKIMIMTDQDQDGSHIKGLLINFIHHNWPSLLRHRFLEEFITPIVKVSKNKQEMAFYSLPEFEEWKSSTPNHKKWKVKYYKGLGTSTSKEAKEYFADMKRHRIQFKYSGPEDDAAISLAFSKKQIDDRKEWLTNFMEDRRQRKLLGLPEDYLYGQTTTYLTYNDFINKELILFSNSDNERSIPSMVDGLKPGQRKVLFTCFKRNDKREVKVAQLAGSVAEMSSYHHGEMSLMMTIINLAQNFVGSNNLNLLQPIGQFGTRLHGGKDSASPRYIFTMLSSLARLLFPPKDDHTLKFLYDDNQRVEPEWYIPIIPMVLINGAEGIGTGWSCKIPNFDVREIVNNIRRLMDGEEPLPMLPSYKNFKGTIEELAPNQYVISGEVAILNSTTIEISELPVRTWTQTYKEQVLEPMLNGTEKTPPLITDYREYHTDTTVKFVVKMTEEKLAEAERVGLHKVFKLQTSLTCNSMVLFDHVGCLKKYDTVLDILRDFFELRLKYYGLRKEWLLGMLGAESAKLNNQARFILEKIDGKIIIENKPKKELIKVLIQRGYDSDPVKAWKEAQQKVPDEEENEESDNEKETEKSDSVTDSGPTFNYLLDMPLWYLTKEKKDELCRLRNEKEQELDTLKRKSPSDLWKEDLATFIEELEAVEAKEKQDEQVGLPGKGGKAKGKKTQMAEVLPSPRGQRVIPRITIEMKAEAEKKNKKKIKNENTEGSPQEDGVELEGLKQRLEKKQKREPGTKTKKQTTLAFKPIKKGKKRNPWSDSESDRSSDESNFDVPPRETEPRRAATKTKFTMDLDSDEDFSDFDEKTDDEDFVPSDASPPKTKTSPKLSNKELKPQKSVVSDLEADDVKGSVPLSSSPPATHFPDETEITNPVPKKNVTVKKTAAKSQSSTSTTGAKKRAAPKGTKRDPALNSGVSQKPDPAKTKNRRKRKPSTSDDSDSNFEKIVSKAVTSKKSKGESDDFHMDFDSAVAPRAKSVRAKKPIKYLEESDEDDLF

Consider “N-[2-(N-Pyrrolidinyl)ethyl]-4-{1-[3-(1,7-dicarba-closo-dodecaborane-1-yl)propyl]-1H-1,2,3-triazol-4-yl}-1,8-naphthalimide [Compound 11]”, for which, in the experiment with calf thymus DNA (ct-DNA) [1], the “ΔTm ct-DNA” value amounted to 0.33 °C. Also, in the experiment on calf thymus DNA (ct-DNA) [2], the bathochromic shift is 1–2 nm. Further, the IC50 with HepG2 cells [3] worked out at 14.6 ± 0.43 µM.
In the case of “N-[2-(N-Pyrrolidinyl)ethyl]-4-{1-[3-(1,2-dicarba-closo-dodecaborane-1-yl)propyl]-1H-1,2,3-triazol-4-yl}methoxy-1,8-naphthalimide [Compound 17]”, in the experiment on calf thymus DNA (ct-DNA) [1], the “ΔTm ct-DNA” value was 0.67 °C. Besides, the bathochromic shift in the experiment on calf thymus DNA (ct-DNA) [2] is 1–2 nm. Also, the IC50 with HepG2 cells [3] was 36.9 ± 3.72 µM.
For the compound `CN(C)CCN1C(=O)c2cccc3cc([N+](=O)[O-])cc(c23)C1=O` [Mitonafide, mitonafide], the IC50 at human topoisomerase IIα was 5.13 µM; with HepG2 cells [5] it was under 1 µM. The “ΔTm ct-DNA” value with calf thymus DNA (ct-DNA) [4] is 5.17 °C. Moreover, the “8-oxo-dG level in cellular DNA” value in the experiment on HepG2 cells [6] is “Mitonafide—28.24 ± 0.18 per 10^6 dG [8]”.
Turning to “N-[2-(N-Pyrrolidinyl)ethyl]-4-[(2-(3-(1,2-dicarba-closo-dodecaborane-1-yl)propanamido)ethyl)amino]-1,8-naphthalimide [Compound 38]”, the “ΔTm ct-DNA” value in the experiment with calf thymus DNA (ct-DNA) [1] was 1.00 °C. Further, the IC50 in the experiment with HepG2 cells [3] is 10.1 ± 1.85 µM. Besides, on human topoisomerase IIα, the “fold less active than compound 8 (Topo IIα IC50)” value is about 5 fold and the IC50 was 2.81 µM.
With “4-{1-[3-(1,7-Dicarba-closo-dodecaborane-1-yl)propyl]-1H-1,2,3-triazol-4-yl}-1,8-naphthalic anhydride [Compound 7]”, the “ΔTm ct-DNA” value in the experiment on calf thymus DNA (ct-DNA) [1] is 0.00 °C. Moreover, the IC50 came out at 136 ± 4.24 µM in the experiment with HepG2 cells [3] and 8.78 µM on human topoisomerase IIα.
Take “N-[2-(Dimethylamino)ethyl]-4-[(2-(3-(1,2-dicarba-closo-dodecaborane-1-yl)propanamido)ethyl)amino]-1,8-naphthalimide [Compound 36]”: the “ΔTm ct-DNA” value in the experiment with calf thymus DNA (ct-DNA) [1] came out at 1.33 °C. Further, the “effect on thermal stability of ct-DNA (in words)” value with calf thymus DNA (ct-DNA) [1] (thermal melting experiments) is reported as “better DNA stabilization”. Besides, the IC50 in the experiment with HepG2 cells [3] was 6.03 ± 0.91 µM; at human topoisomerase IIα, 7.72 µM.
`O=C1c2cccc3cc([N+](=O)[O-])cc(c23)C(=O)N1CCN1CCCC1` [Pinafide, pinafide]: in the experiment on calf thymus DNA (ct-DNA) [4], the “ΔTm ct-DNA” value was 6.50 °C. For the same compound, the IC50 in the experiment with HepG2 cells [5] is 1.23 µM.
Consider “N-[2-(N-Pyrrolidinyl)ethyl]-4-{1-[3-(1,7-dicarba-closo-dodecaborane-1-yl)propyl]-1H-1,2,3-triazol-4-yl}methoxy-1,8-naphthalimide [Compound 19]”, for which the “ΔTm ct-DNA” value in the experiment with calf thymus DNA (ct-DNA) [1] turned out to be 0.67 °C. For the same compound, the bathochromic shift with calf thymus DNA (ct-DNA) [2] was 1–2 nm. The IC50 with HepG2 cells [3] is 15 ± 0.57 µM.
